The supplement of paper PMC10307832

Experiments:
Assay in all cases: relative viability (nuclei count vs DMSO), 5 days (fraction); higher = more cells survive
Adavosertib + Alpelisib = compound: C=CCn1c(=O)c2cnc(Nc3ccc(N4CCN(C)CC4)cc3)nc2n1-c1cccc(C(C)(C)O)n1 [Adavosertib] + Cc1nc(NC(=O)N2CCC[C@H]2C(N)=O)sc1-c1ccnc(C(C)(C)C(F)(F)F)c1 [Alpelisib] (partner 2 µM)
In short: (§1)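 The day after seeding in 1536-well plates, lung cancer cell lines were treated by pin tool with a single drug, or with a fixed anchor-drug dose together with five library-drug doses (not always all listed) in √10 steps. After 5 days, a combined fix-and-stain solution (final 0.05% Triton X-100, 1% formaldehyde, 1 ug/ml Hoechst) was added. Nuclei counted on 4× images gave relative viability as treated counts over vehicle counts, reported as the median of duplicate plates.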

Nelarabine + Bortezomib = compound: COc1nc(N)nc2c1ncn2[C@@H]1O[C@H](CO)[C@@H](O)[C@@H]1O [Nelarabine] + CC(C)C[C@H](NC(=O)[C@H](Cc1ccccc1)NC(=O)c1cnccn1)B(O)O [Bortezomib] (partner 0.002 µM)
In short: as §1

Nelarabine + Linsitinib = compound: COc1nc(N)nc2c1ncn2[C@@H]1O[C@H](CO)[C@@H](O)[C@@H]1O [Nelarabine] + C[C@]1(O)C[C@@H](c2nc(-c3ccc4ccc(-c5ccccc5)nc4c3)c3c(N)nccn32)C1 [Linsitinib] (partner 1 µM)
In short: as §1

Adavosertib + Olaparib = compound: C=CCn1c(=O)c2cnc(Nc3ccc(N4CCN(C)CC4)cc3)nc2n1-c1cccc(C(C)(C)O)n1 [Adavosertib] + O=C(c1cc(Cc2n[nH]c(=O)c3ccccc23)ccc1F)N1CCN(C(=O)C2CC2)CC1 [Olaparib] (partner 8 µM)
In short: as §1

| Cell Line | relative viability (Adavosertib + Alpelisib; first compound 0.01 µM) | relative viability (Adavosertib + Alpelisib; first compound 0.03162 µM) | relative viability (Adavosertib + Alpelisib; first compound 0.1 µM) | relative viability (Adavosertib + Alpelisib; first compound 0.3162 µM) | relative viability (Nelarabine + Bortezomib; first compound 0.01 µM) | relative viability (Nelarabine + Bortezomib; first compound 0.03162 µM) | relative viability (Nelarabine + Bortezomib; first compound 0.1 µM) | relative viability (Nelarabine + Bortezomib; first compound 0.3162 µM) | relative viability (Nelarabine + Bortezomib; first compound 1 µM) | relative viability (Nelarabine + Linsitinib; first compound 0.01 µM) | relative viability (Nelarabine + Linsitinib; first compound 0.03162 µM) | relative viability (Nelarabine + Linsitinib; first compound 0.1 µM) | relative viability (Nelarabine + Linsitinib; first compound 0.3162 µM) | relative viability (Nelarabine + Linsitinib; first compound 1 µM) | relative viability (Adavosertib + Olaparib; first compound 0.01 µM) | relative viability (Adavosertib + Olaparib; first compound 0.03162 µM) | relative viability (Adavosertib + Olaparib; first compound 0.1 µM) | relative viability (Adavosertib + Olaparib; first compound 0.3162 µM) |
| --- | --- | --- | --- | --- | --- | --- | --- | --- | --- | --- | --- | --- | --- | --- | --- | --- | --- | --- |
| NCI-H1666 | 0.85 | 0.889 | 0.934 | 0.796 | 1.02 | 1.02 | 0.747 | 0.89 | 0.789 | 0.911 | 0.766 | 0.906 | 0.797 | 0.788 | 0.774 | 0.754 | 0.745 | 0.738 |
| LC-2-ad | 0.768 | 0.84 | 0.791 | 0.804 | 1.08 | 1.03 | 0.972 | 1.26 | 1.07 | 0.919 | 0.832 | 0.823 | 0.758 | 0.797 | 0.7 | 0.725 | 0.803 | 0.786 |
| PC-3 [JPC-3] | 0.99 | 1.03 | 1.08 | 1.07 | 1.08 | 0.905 | 0.826 | 0.743 | 0.776 | 1.05 | 0.958 | 0.943 | 0.942 | 0.975 |  | 1.09 | 1.2 | 1.14 |
| A-427 | 1.08 | 1.11 | 1.1 | 1.04 | 1.01 | 0.846 | 1.01 | 0.895 | 0.961 | 1.03 | 1.12 | 1.11 | 1.15 | 1.06 | 0.76 | 0.716 | 0.815 | 0.701 |
| NCI-H1651 | 0.833 | 1.06 | 0.936 | 0.687 | 1 | 0.873 | 1.02 | 0.977 | 0.817 | 1.13 | 0.88 | 1.15 | 0.992 | 0.906 | 0.17 | 0.218 | 0.139 | 0.16 |
| IA-LM | 0.649 | 0.731 | 0.833 | 0.931 | 0.989 | 1.04 | 0.986 | 0.927 | 0.748 | 0.847 | 0.838 | 0.68 | 0.737 | 0.667 | 0.809 | 0.82 | 0.872 | 0.775 |
| SK-LU-1 | 1.04 | 1.01 | 0.656 | 0.291 | 1.56 | 1.02 | 1.61 | 1.1 | 1.13 | 1.45 | 0.835 | 1.1 | 1.11 | 1.35 | 0.498 | 0.461 | 0.389 | 0.249 |
| Calu-6 | 0.983 | 0.856 | 0.94 | 0.793 | 1.1 |  | 1.05 | 0.947 | 1.08 | 1.22 | 1.07 | 0.897 | 0.997 | 1 | 0.629 | 0.552 | 0.523 | 0.216 |
| BEN | 1.24 | 1.09 | 1.04 | 1.18 | 0.915 | 0.652 | 0.887 | 1.19 | 0.969 | 1.27 | 0.818 | 1 | 1.04 | 1.07 | 1.07 | 1.01 | 1.12 | 1.05 |
